Where two headings read alike, the source gives them in different places.
Legend:
[1] = target: CDK1/CycA2 (Homo sapiens, UniProt P06493); assay: CDK family single point inhibition assay; type: biochemical; details: Km ATP
[2] = target: CDK8/CycC (Homo sapiens, UniProt P49336); assay: Radiometric protein kinase assay (PanQinase, ProQinase)
[3] = target: CDK1/CycB1 (Homo sapiens, UniProt P06493); assay: CDK family single point inhibition assay; type: biochemical; details: Km ATP
[4] = system: IRF9 and STAT1 mRNA; assay: IFN-responsive gene expression in HCT-116 and Colo-205 cells (qRT-PCR); type: cell-based; details: HCT-116 and Colo-205, 0.5 μM, IFNg treated cells, at least one early (0-3 h) and late (24 h-48 h) time point
Protocol: Figure 3 SEL120-34A inhibits interferon- induced genes expression in a dose dependent manner (A) HCT-116 and Colo-205 cells were made quiescent overnight by decreasing FBS in medium to 0.5% and then preincubated with 0.5 μM SEL120-34A for 1 h followed by either IFNg (5 ng/mL) or IFNa (250 units/mL) stimulation in the presence of SEL120-34A. At the indicated time point, cells were harvested, RNA extracted and transcripts levels analyzed by the qRT-PCR reaction. The results were normalized for RPLP0 mRNA (means ±S.D., n=3). (B) Colo-205 cells were synchronized as in panel A and then challenged with increasing doses of SEL120-34A for 1 h followed by either 3 h IFNg ([…]) or 48 h IFNa (250 units/ml) stimulation. At this time RNA was extracted, DNAse I digested and subjected to the qRT-PCR reaction. […] Differences between mRNA levels for control and SEL120-34A at the indicated time points were assessed by t-tests. […]
[…]

[5] = target: T1, CDK9/CycT1 (Homo sapiens, UniProt P50750); assay: CDK9/CycT1 kinase activity assay (ProQinase); type: biochemical; details: for remaining activity at 1 µM: Km ATP
T1 construct: purchased ProQinase
T1 sequence (P50750 whole entry): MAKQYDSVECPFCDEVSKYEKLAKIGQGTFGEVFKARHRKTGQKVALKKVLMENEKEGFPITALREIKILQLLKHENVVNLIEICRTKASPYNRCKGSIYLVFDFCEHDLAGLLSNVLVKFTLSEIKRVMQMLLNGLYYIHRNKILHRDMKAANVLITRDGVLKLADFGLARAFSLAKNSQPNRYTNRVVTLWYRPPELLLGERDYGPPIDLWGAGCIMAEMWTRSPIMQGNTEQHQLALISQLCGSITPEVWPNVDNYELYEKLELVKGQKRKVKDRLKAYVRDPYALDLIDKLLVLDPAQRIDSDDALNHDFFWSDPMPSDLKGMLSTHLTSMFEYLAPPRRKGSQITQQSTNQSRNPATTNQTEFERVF
T1 sequence (O60563 whole entry partner): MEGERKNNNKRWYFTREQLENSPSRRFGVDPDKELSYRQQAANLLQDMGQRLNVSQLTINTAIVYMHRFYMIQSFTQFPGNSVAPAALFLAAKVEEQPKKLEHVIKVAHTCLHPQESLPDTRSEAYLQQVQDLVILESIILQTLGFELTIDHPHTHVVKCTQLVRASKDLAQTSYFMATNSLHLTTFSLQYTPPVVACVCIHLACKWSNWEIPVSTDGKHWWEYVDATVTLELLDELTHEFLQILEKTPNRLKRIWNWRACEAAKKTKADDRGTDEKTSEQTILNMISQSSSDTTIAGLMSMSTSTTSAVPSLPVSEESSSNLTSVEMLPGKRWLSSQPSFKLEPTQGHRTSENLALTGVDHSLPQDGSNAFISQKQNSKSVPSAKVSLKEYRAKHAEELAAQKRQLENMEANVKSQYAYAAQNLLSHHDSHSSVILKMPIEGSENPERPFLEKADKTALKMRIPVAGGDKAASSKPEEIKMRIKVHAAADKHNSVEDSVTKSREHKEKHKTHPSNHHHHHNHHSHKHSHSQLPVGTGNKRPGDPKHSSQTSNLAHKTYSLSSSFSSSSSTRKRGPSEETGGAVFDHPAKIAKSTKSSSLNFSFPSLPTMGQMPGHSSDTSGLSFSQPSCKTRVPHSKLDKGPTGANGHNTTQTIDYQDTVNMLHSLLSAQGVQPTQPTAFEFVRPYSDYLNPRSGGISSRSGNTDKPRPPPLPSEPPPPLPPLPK
Text: www.impactjournals.com/oncotarget/ Oncotarget, Supplementary Materials 2017
Supplementary Figure 2: Activity of CDK9/CycT1 in the presence of SEL120-34A. […]

[6] = target: CDK3/CycE1 (Homo sapiens, UniProt Q00526); assay: CDK family single point inhibition assay; type: biochemical; details: Km ATP
Sequence of CDK3/CycE1 (Q00526 whole entry): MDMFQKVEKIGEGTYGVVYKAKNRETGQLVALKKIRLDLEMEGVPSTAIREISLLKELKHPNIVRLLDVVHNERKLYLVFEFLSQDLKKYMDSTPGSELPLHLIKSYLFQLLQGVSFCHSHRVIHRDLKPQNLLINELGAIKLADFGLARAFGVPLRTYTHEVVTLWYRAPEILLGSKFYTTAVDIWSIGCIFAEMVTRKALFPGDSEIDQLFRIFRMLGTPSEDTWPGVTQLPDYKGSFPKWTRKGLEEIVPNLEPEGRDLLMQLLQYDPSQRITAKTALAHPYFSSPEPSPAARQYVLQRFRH
Sequence of CDK3/CycE1 (P24864 whole entry partner): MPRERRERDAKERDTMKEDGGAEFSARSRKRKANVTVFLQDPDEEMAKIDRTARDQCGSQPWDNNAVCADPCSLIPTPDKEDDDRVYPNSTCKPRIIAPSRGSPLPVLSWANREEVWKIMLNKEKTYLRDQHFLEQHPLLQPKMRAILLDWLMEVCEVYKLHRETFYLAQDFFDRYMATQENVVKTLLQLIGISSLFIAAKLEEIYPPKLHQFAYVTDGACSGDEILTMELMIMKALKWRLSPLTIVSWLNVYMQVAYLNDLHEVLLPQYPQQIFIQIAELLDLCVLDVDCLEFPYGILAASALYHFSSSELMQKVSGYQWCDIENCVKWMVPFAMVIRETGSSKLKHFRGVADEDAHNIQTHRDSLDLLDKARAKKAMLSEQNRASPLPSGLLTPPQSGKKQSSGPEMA

[7] = target: CDK19/CycC (Homo sapiens, UniProt Q9BWU1); assay: Radiometric protein kinase assay (PanQinase, ProQinase)
Sequence of CDK19/CycC (Q9BWU1 whole entry): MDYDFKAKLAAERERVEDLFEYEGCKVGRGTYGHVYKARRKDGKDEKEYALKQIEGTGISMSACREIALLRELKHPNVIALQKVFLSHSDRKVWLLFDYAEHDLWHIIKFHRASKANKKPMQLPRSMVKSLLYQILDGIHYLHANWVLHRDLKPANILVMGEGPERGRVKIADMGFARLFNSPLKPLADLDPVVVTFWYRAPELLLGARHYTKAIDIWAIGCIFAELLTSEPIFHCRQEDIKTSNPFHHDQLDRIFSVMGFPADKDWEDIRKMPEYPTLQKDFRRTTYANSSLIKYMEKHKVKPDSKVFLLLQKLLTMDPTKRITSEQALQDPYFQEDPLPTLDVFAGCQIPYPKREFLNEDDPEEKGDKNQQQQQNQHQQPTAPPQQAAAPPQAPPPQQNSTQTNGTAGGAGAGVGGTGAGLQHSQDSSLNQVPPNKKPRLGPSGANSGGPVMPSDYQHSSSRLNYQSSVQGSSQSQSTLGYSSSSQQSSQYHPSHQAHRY
Sequence of CDK19/CycC (P24863 whole entry partner): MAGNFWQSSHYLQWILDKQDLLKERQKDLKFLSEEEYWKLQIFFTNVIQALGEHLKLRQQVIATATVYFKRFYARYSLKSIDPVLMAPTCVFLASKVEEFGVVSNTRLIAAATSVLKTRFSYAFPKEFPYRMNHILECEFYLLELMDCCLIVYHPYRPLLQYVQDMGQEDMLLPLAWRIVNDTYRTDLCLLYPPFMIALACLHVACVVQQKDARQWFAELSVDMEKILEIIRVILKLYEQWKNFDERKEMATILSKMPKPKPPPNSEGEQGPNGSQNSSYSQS

Sequence of CDK8/CycC (P49336 whole entry): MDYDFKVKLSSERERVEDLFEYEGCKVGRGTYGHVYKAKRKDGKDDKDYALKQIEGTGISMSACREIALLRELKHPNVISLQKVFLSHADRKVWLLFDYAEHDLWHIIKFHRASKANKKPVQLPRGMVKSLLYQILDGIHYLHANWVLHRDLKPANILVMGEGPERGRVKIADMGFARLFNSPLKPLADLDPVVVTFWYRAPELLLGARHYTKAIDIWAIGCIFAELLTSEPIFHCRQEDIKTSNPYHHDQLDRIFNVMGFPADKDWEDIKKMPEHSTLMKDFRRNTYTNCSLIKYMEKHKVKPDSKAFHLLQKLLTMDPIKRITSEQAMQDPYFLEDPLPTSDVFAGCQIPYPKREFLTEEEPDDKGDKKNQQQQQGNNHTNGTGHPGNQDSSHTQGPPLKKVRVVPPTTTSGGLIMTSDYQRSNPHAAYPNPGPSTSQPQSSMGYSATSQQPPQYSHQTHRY
Sequence of CDK8/CycC (P24863 whole entry partner): as the sequence (P24863 whole entry partner) above
Sequence of CDK1/CycA2 (P06493 whole entry): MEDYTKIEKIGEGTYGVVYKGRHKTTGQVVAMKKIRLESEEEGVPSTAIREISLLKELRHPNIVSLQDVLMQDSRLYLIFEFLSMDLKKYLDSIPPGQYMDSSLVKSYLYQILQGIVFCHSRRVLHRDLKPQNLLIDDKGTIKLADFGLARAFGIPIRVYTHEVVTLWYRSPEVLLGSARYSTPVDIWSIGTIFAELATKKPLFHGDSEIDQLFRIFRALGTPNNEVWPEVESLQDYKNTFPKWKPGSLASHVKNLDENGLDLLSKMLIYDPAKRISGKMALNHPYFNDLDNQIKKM
Sequence of CDK1/CycA2 (P20248 whole entry partner): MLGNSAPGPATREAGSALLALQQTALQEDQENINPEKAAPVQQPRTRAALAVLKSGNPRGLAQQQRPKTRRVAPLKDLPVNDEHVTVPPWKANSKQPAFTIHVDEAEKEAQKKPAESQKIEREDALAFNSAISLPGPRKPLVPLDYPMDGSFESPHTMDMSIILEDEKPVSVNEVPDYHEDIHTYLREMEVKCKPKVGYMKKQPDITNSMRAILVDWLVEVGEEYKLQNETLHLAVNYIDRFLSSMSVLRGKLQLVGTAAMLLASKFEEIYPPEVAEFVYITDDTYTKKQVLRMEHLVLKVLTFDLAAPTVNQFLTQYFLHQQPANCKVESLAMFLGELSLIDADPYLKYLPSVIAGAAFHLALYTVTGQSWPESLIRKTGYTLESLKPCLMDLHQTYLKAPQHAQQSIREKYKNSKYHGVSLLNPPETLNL
Sequence of CDK1/CycB1 (P06493 whole entry): as the sequence (P06493 whole entry) above
Sequence of CDK1/CycB1 (P14635 whole entry partner): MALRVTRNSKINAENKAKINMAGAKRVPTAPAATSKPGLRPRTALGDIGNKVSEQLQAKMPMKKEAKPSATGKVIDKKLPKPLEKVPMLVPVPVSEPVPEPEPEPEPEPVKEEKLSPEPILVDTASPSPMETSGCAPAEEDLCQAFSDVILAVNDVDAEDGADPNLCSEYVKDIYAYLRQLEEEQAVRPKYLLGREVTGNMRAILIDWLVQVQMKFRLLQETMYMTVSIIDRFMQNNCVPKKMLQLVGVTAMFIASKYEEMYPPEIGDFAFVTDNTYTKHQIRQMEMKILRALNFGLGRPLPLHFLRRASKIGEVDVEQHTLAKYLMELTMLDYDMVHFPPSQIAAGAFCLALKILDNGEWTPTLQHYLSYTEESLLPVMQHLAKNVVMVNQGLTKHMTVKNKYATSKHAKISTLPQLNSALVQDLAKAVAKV

`Cc1c(Br)c(Br)c2c3c1nc(N1CCNCC1)n3CCC2` [SEL120-34A] was tested, and the remaining activity at 1 µM ([1]; mean, read-out: % remaining activity @1μM CDK1/CycA2 Mean) was 76%, the remaining activity at 1 µM ([1]; repeat 1, read-out: % remaining activity @1μM CDK1/CycA2 repeat 1) was 73% and the remaining activity at 1 µM ([1]; repeat 2, read-out: % remaining activity @1μM CDK1/CycA2 repeat 2) was 79%. It also gave an IC50 [2] of 0.0044 µM, a remaining activity at 1 µM ([2]; read-out: % remaining activity @1μM CDK8/CycC Mean) of 2% and a remaining activity at 1 µM ([2]; read-out: % remaining activity @1μM CDK8/CycC repeat 1) of 3%. For the same molecule, the remaining activity at 1 µM ([2]; read-out: % remaining activity @1μM CDK8/CycC repeat 2) was 1%, the remaining activity at 1 µM ([3]; mean, read-out: % remaining activity @1μM CDK1/CycB1 Mean) was 88% and the remaining activity at 1 µM ([3]; repeat 1, read-out: % remaining activity @1μM CDK1/CycB1 repeat 1) was 87%. The remaining activity at 1 µM ([3]; repeat 2, read-out: % remaining activity @1μM CDK1/CycB1 repeat 2) was 89%, the “IRF9 and STAT1 mRNA expression” value [4] was “significantly decreased” and the remaining activity at 1 µM ([5]; mean, read-out: % remaining activity @1μM CDK9/CycT1 Mean) was 15%. It also gave a remaining activity at 1 µM ([5]; repeat 1, read-out: % remaining activity @1μM CDK9/CycT1 repeat 1) of 14%, a remaining activity at 1 µM ([5]; repeat 2, read-out: % remaining activity @1μM CDK9/CycT1 repeat 2) of 16% and an IC50 ([5]; CDK9/CycT1, Km ATP concentration) of 1.07 µM. The “selectivity against CDK9” value ([5]; versus CDK8) was “over 200 fold”, the remaining activity at 1 µM ([6]; mean, read-out: % remaining activity @1μM CDK3/CycE1 Mean) was 89% and the remaining activity at 1 µM ([6]; repeat 1, read-out: % remaining activity @1μM CDK3/CycE1 repeat 1) was 97%. It also gave a remaining activity at 1 µM ([6]; repeat 2, read-out: % remaining activity @1μM CDK3/CycE1 repeat 2) of 82% and an IC50 [7] of 0.0104 µM.

From article PMC5464911, “SEL120-34A is a novel CDK8 inhibitor active in AML cells with high levels of serine phosphorylation of STAT1 and STAT5 transactivation domains” (Oncotarget, 2017)
